Results published in patent US20240116946A1 (Gilead Sciences, Inc., priority 2022, published 2024).
Read-outs that look alike come from different tables or passages of the source.

How the values were obtained:
[1] = target: recombinant SARS-CoV-2 Main protease (Mpro) (Severe acute respiratory syndrome coronavirus 2 (2019-nCoV) (SARS-CoV-2), UniProt P0DTD1); experiment: Cov Mpro Biochemical IC50 Assay; conditions: recombinant SARS-CoV-2 Mpro 7.5 nM, fluorogenic peptide substrate 40 μM; read-out: MPro IC50
[2] = system: SARS-CoV-2-NLuc; experiment: microbe, parasite or virus in culture; assay type: cell-based, SARS Coronavirus 2
[3] = Severe acute respiratory syndrome coronavirus, 48 h, read-out: MPro EC50
[4] = Severe acute respiratory syndrome coronavirus, 48 h; read-out: MPro EC50

SMILES	IC50 [1] [nM]	EC50 ([2]; read-out: MPro EC50) [nM]	EC50 [2, 3] [nM]	EC50 [2, 4] [nM]
O=c1[nH]c2cc(-c3c(Cl)cccc3OCc3cscn3)ccc2c(=O)n1-c1cncc2ccccc12 [Example 471, 7-[2-chloro-6-(thiazol-4-ylmethoxy)phenyl]-3-(4-isoquinolyl)-1H-quinazoline-2,4-dione]	97.2	478		
Cc1nn(C2CCNCC2)cc1-c1cccc(Cl)c1-c1ccc2c(=O)n(-c3cncc4ccccc34)c(=O)[nH]c2c1 [Example 472, 7-[2-chloro-6-[3-methyl-1-(4-piperidyl)pyrazol-4-yl]phenyl]-3-(4-isoquinolyl)-1H-quinazoline-2,4-dione]	5.11		188	
Cc1c(-c2cccc(Cl)c2-c2ccc3c(=O)n(-c4cncc5ccccc45)c(=O)[nH]c3c2)cnn1C1CCNCC1 [Example 473]	17.5		1810	
O=c1[nH]c2cc(-c3c(Cl)cccc3-c3cnn4c3CNCC4)ccc2c(=O)n1-c1cncc2ccccc12 [Example 474]	14		124	
O=c1[nH]c2cc(-c3ccccc3Cl)sc2c(=O)n1-c1cncc2ccsc12 [Example 479, 6-(2-chlorophenyl)-3-thieno[3,2-c]pyridin-7-yl-1H-thieno[3,2-d]pyrimidine-2,4-dione]	16.7		20.9	
COc1ccc(Cl)c(-c2cc3[nH]c(=O)n(-c4cncc5ccsc45)c(=O)c3s2)c1 [Example 480]	4.97		10.2	
COc1cc(-c2cc3[nH]c(=O)n(-c4cncc5ccsc45)c(=O)c3s2)c(Cl)cc1F [Example 482]	< 2.54		4.44	
COc1ccc(C#N)c(-c2cc3[nH]c(=O)n(-c4cncc5ccsc45)c(=O)c3s2)c1 [Example 483]	< 2.54		18.1	
COc1ccc(C#N)c(-c2cc3[nH]c(=O)n(-c4cncc5ncsc45)c(=O)c3s2)c1 [Example 484]	38.9		482	
COc1ccc(Cl)c(-c2cc3[nH]c(=O)n(-c4cncc5ncsc45)c(=O)c3s2)c1 [Example 485]	9.6		62.6	
COc1ccc(Cl)c(-c2cc3[nH]c(=O)n(-c4cncc5ncsc45)c(=O)c3s2)c1 [Example 486]	5.9	29.4		
COc1ccc(Cl)c(-c2cc3[nH]c(=O)n(-c4cncc5nc(C(F)(F)F)sc45)c(=O)c3s2)c1 [Example 487]	908		742	
COc1cc(-c2cc3[nH]c(=O)n(-c4cncc5nc(C(F)(F)F)sc45)c(=O)c3s2)c(Cl)cc1F [Example 488]	1020		618	
COc1ccc(Cl)c(-c2cc3[nH]c(=O)n(-c4cncc5c4ccn5C)c(=O)c3s2)c1 [Example 489]	2.63		20.4	
O=c1[nH]c2cc(-c3ccccc3Cl)sc2c(=O)n1-c1cncc2ccoc12 [Example 490]	20.8		55.8	
Cn1ncc2c(-n3c(=O)[nH]c4cc(-c5ccccc5Cl)sc4c3=O)cncc21 [Example 491]	17.3		64.3	
O=c1[nH]c2cc(-c3ccccc3Cl)sc2c(=O)n1-c1cncc2c1cnn2CC(F)(F)F [Example 492]	> 50000		4840	
COc1ccc(Cl)c(-c2cc3[nH]c(=O)n(-c4cncc5ccoc45)c(=O)c3s2)c1 [Example 493]	7.94		33.5	
O=c1[nH]c2cc(-c3ccccc3Cl)sc2c(=O)n1-c1cncc2cn(CC(F)(F)F)nc12 [Example 494]	36		118	
Cn1ncc2cncc(-n3c(=O)[nH]c4cc(-c5ccccc5Cl)sc4c3=O)c21 [Example 495]	6.41		17.2	
O=c1[nH]c2cc(-c3ccccc3Cl)sc2c(=O)n1-c1cncc2cnn(CC(F)(F)F)c12 [Example 496]	31.6		138	
COc1ccc(Cl)c(-c2cc3[nH]c(=O)n(-c4cncc5c4cnn5C)c(=O)c3s2)c1 [Example 497]	6.24			19.1
COc1ccc(Cl)c(-c2cc3[nH]c(=O)n(-c4cncc5cnn(C)c45)c(=O)c3s2)c1 [Example 498]	< 2.54		< 5.96	
COc1ccc(Cl)c(-c2cc3[nH]c(=O)n(-c4cncc5c4cnn5CC(F)(F)F)c(=O)c3s2)c1 [Example 499]	1920		6950	
COc1ccc(Cl)c(-c2cc3[nH]c(=O)n(-c4cncc5cnn(CC(F)(F)F)c45)c(=O)c3s2)c1 [Example 500]	9.12		42.6	
COc1ccc(Cl)c(-c2cc3[nH]c(=O)n(-c4cncc5nn(CC(F)(F)F)cc45)c(=O)c3s2)c1 [Example 501]	14.8			93.9

SMILES	IC50 [1] [nM]	EC50 ([2]; read-out: MPro EC50) [nM]	EC50 [2, 3] [nM]	EC50 [2, 4] [nM]
COc1ccc(Cl)c(-c2cc3[nH]c(=O)n(-c4cncc5cn(CC(F)(F)F)nc45)c(=O)c3s2)c1 [Example 502]	< 2.54		34.8	
COc1cc(-c2cc3[nH]c(=O)n(-c4cncc5cnn(C)c45)c(=O)c3s2)c(Cl)cc1F [Example 505, 6-(2-chloro-4-fluoro-5-methoxyphenyl)-3-(1-methyl-1H-pyrazolo[4,3-c]pyridin-7-yl)thieno[3,2-d]pyrimidine-2,4(1H,3H)-dione]	5.45		9.97	
COc1ccc(C#N)c(-c2cc3[nH]c(=O)n(-c4cncc5cnn(C)c45)c(=O)c3s2)c1 [Example 506]	19.6		99.5	
COc1cc(-c2cc3[nH]c(=O)n(-c4cncc5cnn(CC(F)(F)F)c45)c(=O)c3s2)c(Cl)cc1F [Example 507]	18.8		39.2	
COc1ccc(C#N)c(-c2cc3[nH]c(=O)n(-c4cncc5cnn(CC(F)(F)F)c45)c(=O)c3s2)c1 [Example 508]	21.2		205	
COc1ccc(Cl)c(-c2cc3[nH]c(=O)n(-c4cncc5cc(C(C)(C)O)sc45)c(=O)c3s2)c1 [Example 512, 6-(2-chloro-5-methoxy-phenyl)-3-[2-(1-hydroxy-1-methyl-ethyl)thieno[3,2-c]pyridin-7-yl]-1H-thieno[3,2-d]pyrimidine-2,4-dione]	5.71		26.9	
COc1cc(-c2cc3[nH]c(=O)n(-c4cncc5cc(C(C)(C)O)sc45)c(=O)c3s2)c(Cl)cc1F [Example 513]	7.18		45.9	
COc1ccc(C#N)c(-c2cc3[nH]c(=O)n(-c4cncc5cc(C(C)(C)O)sc45)c(=O)c3s2)c1 [Example 514]	15.8		568	
COc1ccc(Cl)c(-c2cc3[nH]c(=O)n(-c4cncc5sc(C(C)(C)O)cc45)c(=O)c3s2)c1 [Example 515]	8.51		17.5	
COc1ccc(Cl)c(-c2cc3[nH]c(=O)n(-c4cncc5sc(C(C)(C)O)c(C)c45)c(=O)c3s2)c1 [Example 516]	5.27		7.87	
Cc1nn(C)cc1-c1cccc(Cl)c1-c1cc2[nH]c(=O)n(-c3cncc4ccccc34)c(=O)c2s1 [Example 518, 6-[2-chloro-6-(1,3-dimethylpyrazol-4-yl)phenyl]-3-(4-isoquinolyl)-1H-thieno[3,2-d]pyrimidine-2,4-dione]	9.15		5.49	
Cc1cn(C)nc1-c1cccc(Cl)c1-c1cc2[nH]c(=O)n(-c3cncc4ccccc34)c(=O)c2s1 [Example 519]	10.9		31.6	
O=c1[nH]c2cc(-c3c(Cl)cccc3-c3cn4ncnc4c4c3CCC4)sc2c(=O)n1-c1cncc2ccccc12 [Example 520]	< 2.54		14.6	
Cc1ncc(-c2cccc(Cl)c2-c2cc3[nH]c(=O)n(-c4cncc5ccccc45)c(=O)c3s2)n1C [Example 521]	14.9		129	
O=c1[nH]c2cc(-c3c(Cl)cccc3C3=CCOCC3)sc2c(=O)n1-c1cncc2ccccc12 [Example 522]	9.84		5.1	
O=c1[nH]c2cc(-c3c(Cl)cccc3-c3cnn4c3COCC4)sc2c(=O)n1-c1cncc2ccccc12 [Example 523]	4.05		5.79	
CC1(C)Cc2c(-c3cccc(Cl)c3-c3cc4[nH]c(=O)n(-c5cncc6ccccc56)c(=O)c4s3)cnn2C1 [Example 524]	7.83		5.95	
Cn1cncc1-c1cccc(Cl)c1-c1cc2[nH]c(=O)n(-c3cncc4ccccc34)c(=O)c2s1 [Example 525]	10.4		81.2	
Cn1ncc(-c2cccc(Cl)c2-c2cc3[nH]c(=O)n(-c4cncc5ccccc45)c(=O)c3s2)c1C(F)(F)F [Example 526]	15.7		8.34	
Cn1cc(-c2cccc(Cl)c2-c2cc3[nH]c(=O)n(-c4cncc5ccccc45)c(=O)c3s2)c(C2CC2)n1 [Example 527]	3.22		1.45	
O=c1[nH]c2cc(-c3c(Cl)cccc3-c3cnn4c3OCCC4)sc2c(=O)n1-c1cncc2ccccc12 [Example 528]	7.09		7.22	
O=c1[nH]c2cc(-c3c(Cl)cccc3-c3cnc4n3CCC4)sc2c(=O)n1-c1cncc2ccccc12 [Example 529]	8.44		34.1	
N#Cc1ccccc1-c1cc2[nH]c(=O)n(-c3cncc4ccccc34)c(=O)c2s1 [Example 530, 2-(3-(isoquinolin-4-yl)-2,4-dioxo-1,2,3,4-tetrahydrothieno[3,2-d]pyrimidin-6-yl)benzonitrile]	12		84.3	
N#Cc1cnccc1-c1cc2[nH]c(=O)n(-c3cncc4ccccc34)c(=O)c2s1 [Example 531]	50		518	
COc1ccc(C#N)c(-c2cc3[nH]c(=O)n(-c4cncc5ccccc45)c(=O)c3s2)c1 [Example 532, 2-(3-(isoquinolin-4-yl)-2,4-dioxo-1,2,3,4-tetrahydrothieno[3,2-d]pyrimidin-6-yl)-4-methoxybenzonitrile]	< 2.65		17.4	
N#Cc1cc(F)ccc1-c1cc2[nH]c(=O)n(-c3cncc4ccccc34)c(=O)c2s1 [Example 534]	30.6		80.5	
